# Target: S. pneumoniae Topoisomerase IV ATPase (ParE) (Streptococcus pneumoniae serotype 4, UniProt Q59961)
# Assay: S. pneumoniae Topoisomerase IV ATPase inhibition
# Format: biochemical
# Settings: values marked * are an average of two or more data points, read-out: % Inh (13 μM) of S. pneumoniae Topoisomerase IV ATPase
# Method in brief: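 S. pneumoniae ParE (1.25 nM) ATPase with 160 μM ATP and 5 μg/ml sheared DNA in pH 8.0 Tris, Mg2+, DTT, Brij-35; phosphate detected by malachite green/molybdate at 650 nm. Normalised to 2% DMSO (0%) and 20 μM EDTA (100%); IC50 from 10 concentrations.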
# S. pneumoniae Topoisomerase IV ATPase (ParE), sequence (Q59961 whole entry): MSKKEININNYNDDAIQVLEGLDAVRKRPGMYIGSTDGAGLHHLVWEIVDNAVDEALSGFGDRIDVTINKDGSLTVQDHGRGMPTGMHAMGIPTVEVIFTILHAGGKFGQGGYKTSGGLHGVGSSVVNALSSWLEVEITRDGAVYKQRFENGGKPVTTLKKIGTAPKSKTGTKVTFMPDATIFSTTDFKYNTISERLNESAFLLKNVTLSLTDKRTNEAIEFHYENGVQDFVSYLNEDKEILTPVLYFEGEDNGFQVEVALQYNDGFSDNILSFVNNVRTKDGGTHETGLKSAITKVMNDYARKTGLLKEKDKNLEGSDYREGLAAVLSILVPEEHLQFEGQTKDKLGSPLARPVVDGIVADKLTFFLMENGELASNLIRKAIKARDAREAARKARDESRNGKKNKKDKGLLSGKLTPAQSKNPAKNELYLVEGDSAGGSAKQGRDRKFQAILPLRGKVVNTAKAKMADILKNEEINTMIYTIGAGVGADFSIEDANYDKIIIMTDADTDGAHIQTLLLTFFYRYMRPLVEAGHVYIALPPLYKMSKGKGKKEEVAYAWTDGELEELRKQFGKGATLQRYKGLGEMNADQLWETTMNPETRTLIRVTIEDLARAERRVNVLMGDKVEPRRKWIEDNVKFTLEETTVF
row,Compound,inhibition at 13 µM
1,"COc1ncc(-c2cnc(Nc3cc(C)cc(C)c3)nc2-n2ccc(C(F)(F)F)n2)cc1C(=O)NS(=O)(=O)C(C)C [Example 826, 5-{2-[(3,5-dimethylphenyl)amino]-4-[3-(trifluoromethyl)-1H-pyrazol-1-yl]pyrimidin-5-yl}-2-methoxy-N-(propan-2-ylsulfonyl)pyridine-3-carboxamide]",96%
2,"COc1ncc(-c2cnc(Nc3cc(C)cc(C)c3)nc2-n2nc(C(F)(F)F)cc2C)cc1C(=O)NS(=O)(=O)C(C)C [Example 827, 5-{2-[(3,5-dimethylphenyl)amino]-4-[5-methyl-3-(trifluoromethyl)-1H-pyrazol-1-yl]pyrimidin-5-yl}-2-methoxy-N-(propan-2-ylsulfonyl)pyridine-3-carboxamide]",100%
3,"COc1ncc(-c2cnc(Nc3cc(C)cc(C)c3)nc2-n2ccc(C(F)(F)F)n2)cc1C(=O)NS(=O)(=O)CCCN1CCOCC1 [Example 828, 5-{2-[(3,5-dimethylphenyl)amino]-4-[3-(trifluoromethyl)-1H-pyrazol-1-yl]pyrimidin-5-yl}-2-methoxy-N-{[3-(morpholin-4-yl)propyl]sulfonyl}pyridine-3-carboxamide]",100%
4,"COc1ncc(-c2cnc(Nc3cc(C)cc(C)c3)nc2-n2nc(C(F)(F)F)cc2C)cc1C(=O)NS(=O)(=O)CCCN1CCOCC1 [Example 829, 5-{2-[(3,5-dimethylphenyl)amino]-4-[5-methyl-3-(trifluoromethyl)-1H-pyrazol-1-yl]pyrimidin-5-yl}-2-methoxy-N-{[3-(morpholin-4-yl)propyl]sulfonyl}pyridine-3-carboxamide]",100%
5,"COc1cc(Nc2ncc(-c3ccc4c(c3)C(=O)NS4(=O)=O)c(-n3nc(C(F)(F)F)cc3C)n2)cc(OC)c1 [Example 830, 5-{2-[(3,5-dimethoxyphenyl)amino]-4-[5-methyl-3-(trifluoromethyl)-1H-pyrazol-1-yl]pyrimidin-5-yl}-1,2-benzothiazol-3(2H)-one 1,1-dioxide]",100%
6,"COc1cc(Nc2ncc(-c3ccc4c(c3)C(=O)NS4(=O)=O)c(-n3ccc(C(F)(F)F)n3)n2)cc(OC)c1 [Example 831, 5-{2-[(3,5-dimethoxyphenyl)amino]-4-[3-(trifluoromethyl)-1H-pyrazol-1-yl]pyrimidin-5-yl}-1,2-benzothiazol-3(2H)-one 1,1-dioxide]",89%
7,"Cc1cc(C)cc(Nc2ncc(-c3ccc4c(c3)C(=O)NS4(=O)=O)c(-n3nc(C(F)(F)F)cc3C)n2)c1 [Example 832, 5-{2-[(3,5-dimethylphenyl)amino]-4-[5-methyl-3-(trifluoromethyl)-1H-pyrazol-1-yl]pyrimidin-5-yl}-1,2-benzothiazol-3(2H)-one 1,1-dioxide]",100%
8,"Cc1cc(C)cc(Nc2ncc(-c3ccc4c(c3)C(=O)NS4(=O)=O)c(-n3ccc(C(F)(F)F)n3)n2)c1 [Example 833, 5-{2-[(3,5-dimethylphenyl)amino]-4-[3-(trifluoromethyl)-1H-pyrazol-1-yl]pyrimidin-5-yl}-1,2-benzothiazol-3(2H)-one 1,1-dioxide]",100%
9,"COc1cc(Nc2ncc(-c3cnc(OC)c(C(=O)NS(=O)(=O)c4sc(NC(C)=O)nc4C)c3)c(-n3nc(C(F)(F)F)cc3C)n2)cc(OC)c1 [Example 834, N-{[2-(acetylamino)-4-methyl-1,3-thiazol-5-yl]sulfonyl}-5-{2-[(3,5-dimethoxyphenyl)amino]-4-[5-methyl-3-(trifluoromethyl)-1H-pyrazol-1-yl]pyrimidin-5-yl}-2-methoxypyridine-3-carboxamide]",98%
10,"COc1cc(Nc2ncc(-c3cnc(OC)c(C(=O)NS(=O)(=O)CC(F)(F)F)c3)c(-n3nc(C(F)(F)F)cc3C)n2)cc(OC)c1 [Example 835, 5-{2-[(3,5-dimethoxyphenyl)amino]-4-[5-methyl-3-(trifluoromethyl)-1H-pyrazol-1-yl]pyrimidin-5-yl}-2-methoxy-N-[(2,2,2-trifluoroethyl)sulfonyl]pyridine-3-carboxamide]",95%
11,"COc1cc(Nc2ncc(-c3cnc(OC)c(C(=O)NS(=O)(=O)c4c(C)noc4C)c3)c(-n3nc(C(F)(F)F)cc3C)n2)cc(OC)c1 [Example 836, 5-{2-[(3,5-dimethoxyphenyl)amino]-4-[5-methyl-3-(trifluoromethyl)-1H-pyrazol-1-yl]pyrimidin-5-yl}-N-[(3,5-dimethyl-1,2-oxazol-4-yl)sulfonyl]-2-methoxypyridine-3-carboxamide]",94%
12,"COc1cc(Nc2ncc(-c3cnc(OC)c(C(=O)NS(=O)(=O)c4sc(C)nc4C)c3)c(-n3nc(C(F)(F)F)cc3C)n2)cc(OC)c1 [Example 837, 5-{2-[(3,5-dimethoxyphenyl)amino]-4-[5-methyl-3-(trifluoromethyl)-1H-pyrazol-1-yl]pyrimidin-5-yl}-N-[(2,4-dimethyl-1,3-thiazol-5-yl)sulfonyl]-2-methoxypyridine-3-carboxamide]",94%
13,"COc1cc(Nc2ncc(-c3cnc(OC)c(C(=O)NS(=O)(=O)CS(C)(=O)=O)c3)c(-n3nc(C(F)(F)F)cc3C)n2)cc(OC)c1 [Example 838, 5-{2-[(3,5-dimethoxyphenyl)amino]-4-[5-methyl-3-(trifluoromethyl)-1H-pyrazol-1-yl]pyrimidin-5-yl}-2-methoxy-N-{[(methylsulfonyl)methyl]sulfonyl}pyridine-3-carboxamide]",99%
14,"COc1cc(Nc2ncc(-c3cnc(OC)c(C(=O)NS(=O)(=O)c4cn(C)cn4)c3)c(-n3nc(C(F)(F)F)cc3C)n2)cc(OC)c1 [Example 839, 5-{2-[(3,5-dimethoxyphenyl)amino]-4-[5-methyl-3-(trifluoromethyl)-1H-pyrazol-1-yl]pyrimidin-5-yl}-2-methoxy-N-[(1-methyl-1H-imidazol-4-yl)sulfonyl]pyridine-3-carboxamide]",100%
15,"COc1cc(Nc2ncc(-c3cnc(OC)c(C(=O)NS(=O)(=O)C4=CCS(=O)(=O)C4)c3)c(-n3nc(C(F)(F)F)cc3C)n2)cc(OC)c1 [Example 840, 5-{2-[(3,5-dimethoxyphenyl)amino]-4-[5-methyl-3-(trifluoromethyl)-1H-pyrazol-1-yl]pyrimidin-5-yl}-N-[(1,1-dioxido-2,5-dihydrothiophen-3-yl)sulfonyl]-2-methoxypyridine-3-carboxamide]",99%
16,"COc1cc(Nc2ncc(-c3cnc(OC)c(C(=O)NS(=O)(=O)c4c(C)nn(C)c4C)c3)c(-n3nc(C(F)(F)F)cc3C)n2)cc(OC)c1 [Example 842, 5-{2-[(3,5-dimethoxyphenyl)amino]-4-[5-methyl-3-(trifluoromethyl)-1H-pyrazol-1-yl]pyrimidin-5-yl}-2-methoxy-N-[(1,3,5-trimethyl-1H-pyrazol-4-yl)sulfonyl]pyridine-3-carboxamide]",97%
17,"COc1cc(Nc2ncc(-c3cnc(OC)c(C(=O)NS(=O)(=O)c4cccc(C(C)=O)c4)c3)c(-n3nc(C(F)(F)F)cc3C)n2)cc(OC)c1 [Example 844, N-[(3-acetylphenyl)sulfonyl]-5-{2-[(3,5-dimethoxyphenyl)amino]-4-[5-methyl-3-(trifluoromethyl)-1H-pyrazol-1-yl]pyrimidin-5-yl}-2-methoxypyridine-3-carboxamide]",100%
18,"COc1cc(Nc2ncc(-c3cnc(OC)c(C(=O)NS(=O)(=O)c4cn(C)nc4C(F)(F)F)c3)c(-n3nc(C(F)(F)F)cc3C)n2)cc(OC)c1 [Example 845, 5-{2-[(3,5-dimethoxyphenyl)amino]-4-[5-methyl-3-(trifluoromethyl)-1H-pyrazol-1-yl]pyrimidin-5-yl}-2-methoxy-N-{[1-methyl-3-(trifluoromethyl)-1H-pyrazol-4-yl]sulfonyl}pyridine-3-carboxamide]",92%
19,"COc1cc(Nc2ncc(-c3cnc(OC)c(C(=O)NS(=O)(=O)c4ccc(CNC(C)=O)cc4)c3)c(-n3nc(C(F)(F)F)cc3C)n2)cc(OC)c1 [Example 846, N-({4-[(acetylamino)methyl]phenyl}sulfonyl)-5-{2-[(3,5-dimethoxyphenyl)amino]-4-[5-methyl-3-(trifluoromethyl)-1H-pyrazol-1-yl]pyrimidin-5-yl}-2-methoxypyridine-3-carboxamide]",97%
20,"COc1cc(Nc2ncc(-c3cnc(OC)c(C(=O)NS(=O)(=O)c4cn(C)c(=O)n(C)c4=O)c3)c(-n3nc(C(F)(F)F)cc3C)n2)cc(OC)c1 [Example 847, 5-{2-[(3,5-dimethoxyphenyl)amino]-4-[5-methyl-3-(trifluoromethyl)-1H-pyrazol-1-yl]pyrimidin-5-yl}-N-[(1,3-dimethyl-2,4-dioxo-1,2,3,4-tetrahydropyrimidin-5-yl)sulfonyl]-2-methoxypyridine-3-carboxamide]",97%
21,"COc1cc(Nc2ncc(-c3cnc(OC)c(C(=O)NS(=O)(=O)CCN4C(=O)CCC4=O)c3)c(-n3nc(C(F)(F)F)cc3C)n2)cc(OC)c1 [Example 848, 5-{2-[(3,5-dimethoxyphenyl)amino]-4-[5-methyl-3-(trifluoromethyl)-1H-pyrazol-1-yl]pyrimidin-5-yl}-N-{[2-(2,5-dioxopyrrolidin-1-yl)ethyl]sulfonyl}-2-methoxypyridine-3-carboxamide]",100%
22,"COc1cc(Nc2ncc(-c3cnc(SC)c(C(=O)O)c3)c(-n3ccc(C(F)(F)F)n3)n2)cc(OC)c1 [Example 851, 5-{2-[(3,5-dimethoxyphenyl)amino]-4-[3-(trifluoromethyl)-1H-pyrazol-1-yl]pyrimidin-5-yl}-2-(methylsulfanyl)pyridine-3-carboxylic acid]",98%
23,"COc1cc(Nc2ncc(-c3cnc(SC)c(C(=O)NS(C)(=O)=O)c3)c(-n3ccc(C(F)(F)F)n3)n2)cc(OC)c1 [Example 852, 5-{2-[(3,5-dimethoxyphenyl)amino]-4-[3-(trifluoromethyl)-1H-pyrazol-1-yl]pyrimidin-5-yl}-2-(methylsulfanyl)-N-(methylsulfonyl)pyridine-3-carboxamide]",100%
